Experiments:
CDK19 [1] = target: CDK19 (Homo sapiens, UniProt Q9BWU1); experiment: CDK19 degradation in Loucy T-cell leukemia cells lacking Cyclin C; format: cell-based; parameters: endogenous in cells; host or cells: Loucy; details: Loucy cells (lacking CCNC), 24 hr treatment
Text: (§1) This cell line, however, is unique in lacking Cyclin C (CCNC), the binding partner of CDK8/19. To test if the absence of CDK8-bound CCNC was responsible for the loss of IA7843 CDK8-degrading activity, we have tested the effect of IA7843 on a derivative of HEK-293cells with CRISPR-mediated knockout of CCNC.

CDK8 [2] = target: T1, CDK8 (Mus musculus, UniProt Q8R3L8); experiment: CDK8 degradation in murine CT26 colon carcinoma cells; format: cell-based; parameters: endogenous in cells; host or cells: CT26
T1 sequence (Q8R3L8 1-464): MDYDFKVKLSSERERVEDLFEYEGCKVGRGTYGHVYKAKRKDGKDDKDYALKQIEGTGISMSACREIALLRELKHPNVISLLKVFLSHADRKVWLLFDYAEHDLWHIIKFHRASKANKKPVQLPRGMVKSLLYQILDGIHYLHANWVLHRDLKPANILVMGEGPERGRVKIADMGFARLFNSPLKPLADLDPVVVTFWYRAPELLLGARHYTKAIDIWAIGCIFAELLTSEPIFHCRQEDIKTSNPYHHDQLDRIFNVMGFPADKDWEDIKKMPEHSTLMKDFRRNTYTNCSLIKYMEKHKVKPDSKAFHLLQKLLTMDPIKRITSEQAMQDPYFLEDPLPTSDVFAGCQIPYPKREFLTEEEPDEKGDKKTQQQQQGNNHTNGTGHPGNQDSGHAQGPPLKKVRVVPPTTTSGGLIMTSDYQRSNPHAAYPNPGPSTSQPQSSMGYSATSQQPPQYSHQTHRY
T1 sequence (Q62447 1-283 partner): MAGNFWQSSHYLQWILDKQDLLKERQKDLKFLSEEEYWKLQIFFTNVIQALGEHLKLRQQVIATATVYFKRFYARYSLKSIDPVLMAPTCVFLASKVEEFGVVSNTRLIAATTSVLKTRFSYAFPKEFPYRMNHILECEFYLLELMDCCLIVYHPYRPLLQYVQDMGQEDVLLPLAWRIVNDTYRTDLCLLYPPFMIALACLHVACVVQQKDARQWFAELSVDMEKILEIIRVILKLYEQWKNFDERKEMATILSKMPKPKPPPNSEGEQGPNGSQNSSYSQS
Text: (§2) Both the extent and the kinetics of CDK8 degradation were similar between two cell lines, with the degradation reaching maximum at about 8 hrs of PROTAC treatment.

Jurkat cells = experiment: Wash-off growth study in Jurkat cells; format: cell-based, human; details: pre-treated 200 nM for 8 days, then drug-free vs drug-containing media for 8 days
Description: We also compared the stability of short-term growth inhibition induced by a PROTAC and a kinase inhibitor in a wash-off study in Jurkat cells. In the experiment shown in FIG. 11C, Jurkat cells were pre-treated with 200 nM BI-1347 or IA7886 for 8 days before removal of drug-containing media and further cultured in either drug-containing (200 nM) or drug-free media for 8 days before counting cell numbers. Removal of BI-1347 led to 7.1 fold increase of the cell number while removal of IA7886 increased the cell number only 1.8 fold (FIG. 11C).

CDK19 [3] = target: T2, CDK19 (Canis lupus familiaris, UniProt A0A8I3NZB9); experiment: CDK19 degradation in canine Abrams osteosarcoma cells; format: cell-based
T2 construct: endogenous in cells; host or cells: Abrams (canine osteosarcoma)
T2 sequence (A0A8I3NZB9 1-502): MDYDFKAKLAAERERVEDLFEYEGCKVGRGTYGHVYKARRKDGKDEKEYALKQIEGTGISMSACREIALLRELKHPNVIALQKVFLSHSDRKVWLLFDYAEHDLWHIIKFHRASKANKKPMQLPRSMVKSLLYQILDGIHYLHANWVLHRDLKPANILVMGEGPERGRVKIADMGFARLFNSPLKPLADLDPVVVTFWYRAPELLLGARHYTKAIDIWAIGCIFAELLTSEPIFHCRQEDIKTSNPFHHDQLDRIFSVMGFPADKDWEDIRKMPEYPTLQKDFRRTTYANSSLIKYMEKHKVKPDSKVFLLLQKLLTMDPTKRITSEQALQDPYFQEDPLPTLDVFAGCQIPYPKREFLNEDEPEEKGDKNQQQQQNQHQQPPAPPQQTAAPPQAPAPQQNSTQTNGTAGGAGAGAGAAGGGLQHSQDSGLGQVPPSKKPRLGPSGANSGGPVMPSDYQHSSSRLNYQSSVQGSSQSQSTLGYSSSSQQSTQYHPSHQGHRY
Text: as §2

KMS-12-BM cells = experiment: Concentration dependence of KMS-12-BM growth inhibition (CCK-8 assay); format: cell-based; details: Homo sapiens, 96 h, over 4 days
Description: Concentration dependence of KMS-12-BM growth inhibition over 4 days was determined for BI-1347 CDK8/19 kinase inhibitor and IA7886 PROTAC using CCK-8 assay (FIG. 13B).

[4] = system: CDK8/CDK19/CCNC protein degradation and STAT1 S727 phosphorylation; experiment: Wash-off study in HEK-293 cells, Western blot; format: cell-based, human; details: HEK-293, within 24 hours after removal of drug-containing media
CDK8 [5] = target: T3, CDK8 (Homo sapiens, UniProt P49336); experiment: CDK8 degradation in Loucy T-cell leukemia cells lacking Cyclin C; format: cell-based; parameters: endogenous in cells; host or cells: Loucy; details: Loucy cells (lacking CCNC), 24 hr treatment
Text: as §1

CDK8 [6] = target: T3, CDK8; experiment: CDK8 degradation in HEK-293 cells with CRISPR knockout of CCNC; format: cell-based; parameters: a derivative of HEK-293cells with CRISPR-mediated knockout of CCNC; endogenous in cells; host or cells: HEK-293 with CRISPR knockout of CCNC; details: HEK-293 CCNC-knockout cells, 24 hr treatment
Text: as §1

CDK8/19-regulated genes = experiment: QPCR of CDK8/19-regulated genes in HEK-293 wild-type and CDK8/19 double-knockout cells; format: cell-based, human; details: for effect on expression of CDK8/19-regulated genes: 200 nM, 3-day treatment
Description: CDK8/19 act as transcriptional regulators, and therefore we tested the effects of 3-day treatment with 200 nM PROTAC IA7886 along with 200 nM CDK8/19 kinase inhibitor BI-1347 on a series of CDK8/19-regulated genes, using QPCR.
We have also compared the stability of transcriptional changes induced by a PROTAC and by a kinase inhibitor. In the experiment shown in FIG. 10A, HEK-293 cells were treated with 200 nM of BI-1347 or IA7886 for 3 days, and then the inhibitors were washed off and the restoration of transcriptional changes was monitored 24 hrs and 48 hrs after wash-off.

T3 sequence (P49336 whole entry): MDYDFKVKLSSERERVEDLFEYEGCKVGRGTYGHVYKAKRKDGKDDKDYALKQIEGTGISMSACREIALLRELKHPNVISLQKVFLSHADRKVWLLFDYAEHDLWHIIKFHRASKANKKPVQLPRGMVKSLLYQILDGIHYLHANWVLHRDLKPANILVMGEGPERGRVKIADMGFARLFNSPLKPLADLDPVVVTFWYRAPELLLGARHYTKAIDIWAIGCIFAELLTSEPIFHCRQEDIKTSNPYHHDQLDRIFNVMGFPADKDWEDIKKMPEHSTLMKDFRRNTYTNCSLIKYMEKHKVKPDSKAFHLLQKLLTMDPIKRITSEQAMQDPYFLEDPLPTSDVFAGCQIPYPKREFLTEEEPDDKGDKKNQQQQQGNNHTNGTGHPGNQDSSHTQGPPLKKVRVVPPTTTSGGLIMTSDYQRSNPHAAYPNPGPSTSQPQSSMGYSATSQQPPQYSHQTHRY
Sequence of CDK19 (Homo sapiens, UniProt Q9BWU1) (Q9BWU1 whole entry): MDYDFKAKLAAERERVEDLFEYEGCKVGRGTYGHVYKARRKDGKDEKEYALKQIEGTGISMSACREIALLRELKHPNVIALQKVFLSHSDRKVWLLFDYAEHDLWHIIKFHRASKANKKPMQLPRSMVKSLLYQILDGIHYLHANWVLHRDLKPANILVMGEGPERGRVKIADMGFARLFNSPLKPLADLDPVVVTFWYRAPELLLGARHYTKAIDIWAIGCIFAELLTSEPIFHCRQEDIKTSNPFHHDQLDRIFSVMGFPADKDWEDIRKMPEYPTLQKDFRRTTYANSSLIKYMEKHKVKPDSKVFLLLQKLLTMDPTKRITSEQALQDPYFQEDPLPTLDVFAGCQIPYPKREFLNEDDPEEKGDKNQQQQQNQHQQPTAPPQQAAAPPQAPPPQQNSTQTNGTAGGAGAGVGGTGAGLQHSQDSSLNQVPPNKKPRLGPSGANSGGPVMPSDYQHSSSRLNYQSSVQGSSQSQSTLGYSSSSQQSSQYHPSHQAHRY

CDK19 degradation (in words) (CDK19 [1]): efficiently degraded CDK8 and CDK19 | time at which CDK8 degradation reaches maximum (CDK8 [2]; 100 nM): about 8 hrs | CDK8 degradation (in words) (CDK8 [5]): efficiently degraded CDK8 and CDK19 | CDK8 degradation (in words) (CDK8 [6]): efficiently degraded CDK8 and CDK19
Compound: O=C(CCCNc1cccc2c1C(=O)N(C1CCC(=O)NC1=O)C2=O)NCCCCCCCCCCC(=O)N1CCN(C(=O)Cn2cc(-c3ccc(-c4cncc5ccccc45)cc3)cn2)CC1 (stereo not drawn) [IA7886, 4-[[2-(2,6-dioxo-3-piperidyl)-1,3-dioxo-isoindolin-4-yl]amino]-N-[11-[4-[2-[4-[4-(4-isoquinolyl)phenyl]pyrazol-1-yl]acetyl]piperazin-1-yl]-11-oxo-undecyl]butanamide]
CDK8 degradation (in words) (CDK8 [2]): induce CDK8 degradation in both cell lines | increase of the cell number upon removal of drug (Jurkat cells): 1.8 fold | CDK19 degradation (in words) (CDK19 [3]): induced CDK19 degradation in Abrams cells | IC50 (KMS-12-BM cells): 18 nM | effects on CDK8/CDK19/CCNC protein degradation and STAT1 S727 phosphorylation after removal of drug [4]: remained nearly unchanged | effect on expression of CDK8/19-regulated genes (CDK8/19-regulated genes; CDK8/19 double-knockout (dKO) 293 cells): had no effect in dKO cells | stability of transcriptional changes after wash-off (CDK8/19-regulated genes; HEK-293, 200 nM for 3 days, then 24 hrs and 48 hrs after wash-off): maintained even 48 hrs after wash-off | effect on expression of CDK8/19-regulated genes (CDK8/19-regulated genes; wild-type HEK-293 cells): had similar effects on the expression of the tested genes
